Assay results published in ChEMBL document CHEMBL4376833, “Influence of Non-natural Cationic Amino Acids on the Biological Activity Profile of Innate Defense Regulator Peptides” (J Med Chem, 2019).
Activity calls are given as the source filed them. Non-standard residues stand in square brackets, D forms with d. Residues, ends and D or L forms follow the SMILES beside them. hArg = N=C(N)NCCCC[C@H](N)C(=O)O; Agb = N=C(N)NCC[C@H](N)C(=O)O; Agp = N=C(N)NC[C@H](N)C(=O)O; Orn = NCCC[C@H](N)C(=O)O; Dab = NCC[C@H](N)C(=O)O; Dap = NC[C@H](N)C(=O)O

Legend:
Staphylococcus aureus [1] = test: Antibiofilm activity against methicillin-resistant Staphylococcus aureus assessed as inhibition of biofilm formation incubated for overnight by crystal violet staining based microtiter plate assay; assay type: functional, organism-based
Staphylococcus aureus [2] = test: Antibacterial activity against methicillin-resistant Staphylococcus aureus assessed as alteration in bacterial growth incubated for overnight by microtiter plate based spectrophotometric analysis; assay type: functional, organism-based
Staphylococcus aureus [3] = test: Antibiofilm activity against methicillin-resistant Staphylococcus aureus assessed as inhibition of biofilm formation by measuring residual biofilm growth incubated for overnight at 10-fold dilution by crystal violet staining based microtiter plate assay relative to control; assay type: functional

SMILES	inhibition (Staphylococcus aureus [1])	Activity (Staphylococcus aureus [2])	residual biofilm growth (% of control) (Staphylococcus aureus [3]) [%]	Activity (Staphylococcus aureus [3])
CC[C@H](C)[C@H](NC(=O)[C@H](CCCNC(=N)N)NC(=O)[C@@H](NC(=O)[C@H](C)NC(=O)[C@@H](NC(=O)[C@@H](NC(=O)[C@H](CC(C)C)NC(=O)[C@H](CCCNC(=N)N)NC(=O)[C@@H](N)C(C)C)[C@@H](C)CC)C(C)C)C(C)C)C(=O)N[C@@H](Cc1c[nH]c2ccccc12)C(=O)N[C@@H](CCCNC(=N)N)C(=O)N[C@@H](CCNC(=N)N)C(N)=O (H-VRLIVAVRIWR[Agb]-NH2)	Dose-dependent effect	Active	39.9	–
CC[C@H](C)[C@H](NC(=O)[C@H](CCCNC(=N)N)NC(=O)[C@@H](NC(=O)[C@H](C)NC(=O)[C@@H](NC(=O)[C@@H](NC(=O)[C@H](CC(C)C)NC(=O)[C@H](CCCNC(=N)N)NC(=O)[C@@H](N)C(C)C)[C@@H](C)CC)C(C)C)C(C)C)C(=O)N[C@@H](Cc1c[nH]c2ccccc12)C(=O)N[C@@H](CCCNC(=N)N)C(=O)N[C@@H](CNC(=N)N)C(N)=O (H-VRLIVAVRIWR[Agp]-NH2)	–	–	–	inactive
CC[C@H](C)[C@H](NC(=O)[C@H](CCCNC(=N)N)NC(=O)[C@@H](NC(=O)[C@H](C)NC(=O)[C@@H](NC(=O)[C@@H](NC(=O)[C@H](CC(C)C)NC(=O)[C@H](CCCNC(=N)N)NC(=O)[C@@H](N)C(C)C)[C@@H](C)CC)C(C)C)C(C)C)C(=O)N[C@@H](Cc1c[nH]c2ccccc12)C(=O)N[C@@H](CCCNC(=N)N)C(=O)N[C@@H](CCN)C(N)=O (H-VRLIVAVRIWR[Dab]-NH2)	–	–	–	inactive
CC[C@H](C)[C@H](NC(=O)[C@H](CCCNC(=N)N)NC(=O)[C@@H](NC(=O)[C@H](C)NC(=O)[C@@H](NC(=O)[C@@H](NC(=O)[C@H](CC(C)C)NC(=O)[C@H](CCCNC(=N)N)NC(=O)[C@@H](N)C(C)C)[C@@H](C)CC)C(C)C)C(C)C)C(=O)N[C@@H](Cc1c[nH]c2ccccc12)C(=O)N[C@@H](CCCNC(=N)N)C(=O)N[C@@H](CN)C(N)=O (H-VRLIVAVRIWR[Dap]-NH2)	Dose-dependent effect	Active	11.9	–
CC[C@H](C)[C@H](NC(=O)[C@H](CCCNC(=N)N)NC(=O)[C@@H](NC(=O)[C@H](C)NC(=O)[C@@H](NC(=O)[C@@H](NC(=O)[C@H](CC(C)C)NC(=O)[C@H](CCCNC(=N)N)NC(=O)[C@@H](N)C(C)C)[C@@H](C)CC)C(C)C)C(C)C)C(=O)N[C@@H](Cc1c[nH]c2ccccc12)C(=O)N[C@@H](CCCNC(=N)N)C(=O)N[C@@H](CCCN)C(N)=O (H-VRLIVAVRIWR[Orn]-NH2)	Dose-dependent effect	Active	7.3	–
CC[C@H](C)[C@H](NC(=O)[C@H](CCCNC(=N)N)NC(=O)[C@@H](NC(=O)[C@H](C)NC(=O)[C@@H](NC(=O)[C@@H](NC(=O)[C@H](CC(C)C)NC(=O)[C@H](CCCNC(=N)N)NC(=O)[C@@H](N)C(C)C)[C@@H](C)CC)C(C)C)C(C)C)C(=O)N[C@@H](Cc1c[nH]c2ccccc12)C(=O)N[C@@H](CCCNC(=N)N)C(=O)N[C@@H](CCCCNC(=N)N)C(N)=O (H-VRLIVAVRIWR[hArg]-NH2)	Dose-dependent effect	Active	8.5	–
CC[C@H](C)[C@H](NC(=O)[C@H](CCCNC(=N)N)NC(=O)[C@@H](NC(=O)[C@H](C)NC(=O)[C@@H](NC(=O)[C@@H](NC(=O)[C@H](CC(C)C)NC(=O)[C@H](CCCNC(=N)N)NC(=O)[C@@H](N)C(C)C)[C@@H](C)CC)C(C)C)C(C)C)C(=O)N[C@@H](Cc1c[nH]c2ccccc12)C(=O)N[C@@H](CCNC(=N)N)C(=O)N[C@@H](CCCNC(=N)N)C(N)=O (H-VRLIVAVRIW[Agb]R-NH2)	–	–	–	inactive
CC[C@H](C)[C@H](NC(=O)[C@H](CCCNC(=N)N)NC(=O)[C@@H](NC(=O)[C@H](C)NC(=O)[C@@H](NC(=O)[C@@H](NC(=O)[C@H](CC(C)C)NC(=O)[C@H](CCCNC(=N)N)NC(=O)[C@@H](N)C(C)C)[C@@H](C)CC)C(C)C)C(C)C)C(=O)N[C@@H](Cc1c[nH]c2ccccc12)C(=O)N[C@@H](CNC(=N)N)C(=O)N[C@@H](CCCNC(=N)N)C(N)=O (H-VRLIVAVRIW[Agp]R-NH2)	–	–	–	inactive
CC[C@H](C)[C@H](NC(=O)[C@H](CCCNC(=N)N)NC(=O)[C@@H](NC(=O)[C@H](C)NC(=O)[C@@H](NC(=O)[C@@H](NC(=O)[C@H](CC(C)C)NC(=O)[C@H](CCCNC(=N)N)NC(=O)[C@@H](N)C(C)C)[C@@H](C)CC)C(C)C)C(C)C)C(=O)N[C@@H](Cc1c[nH]c2ccccc12)C(=O)N[C@@H](CCN)C(=O)N[C@@H](CCCNC(=N)N)C(N)=O (H-VRLIVAVRIW[Dab]R-NH2)	–	–	–	inactive
CC[C@H](C)[C@H](NC(=O)[C@H](CCCNC(=N)N)NC(=O)[C@@H](NC(=O)[C@H](C)NC(=O)[C@@H](NC(=O)[C@@H](NC(=O)[C@H](CC(C)C)NC(=O)[C@H](CCCNC(=N)N)NC(=O)[C@@H](N)C(C)C)[C@@H](C)CC)C(C)C)C(C)C)C(=O)N[C@@H](Cc1c[nH]c2ccccc12)C(=O)N[C@@H](CN)C(=O)N[C@@H](CCCNC(=N)N)C(N)=O (H-VRLIVAVRIW[Dap]R-NH2)	Dose-dependent effect	Active	19.9	–
CC[C@H](C)[C@H](NC(=O)[C@H](CCCNC(=N)N)NC(=O)[C@@H](NC(=O)[C@H](C)NC(=O)[C@@H](NC(=O)[C@@H](NC(=O)[C@H](CC(C)C)NC(=O)[C@H](CCCNC(=N)N)NC(=O)[C@@H](N)C(C)C)[C@@H](C)CC)C(C)C)C(C)C)C(=O)N[C@@H](Cc1c[nH]c2ccccc12)C(=O)N[C@@H](CCCN)C(=O)N[C@@H](CCCNC(=N)N)C(N)=O (H-VRLIVAVRIW[Orn]R-NH2)	Dose-dependent effect	Active	12.3	–
CC[C@H](C)[C@H](NC(=O)[C@H](CCCNC(=N)N)NC(=O)[C@@H](NC(=O)[C@H](C)NC(=O)[C@@H](NC(=O)[C@@H](NC(=O)[C@H](CC(C)C)NC(=O)[C@H](CCCNC(=N)N)NC(=O)[C@@H](N)C(C)C)[C@@H](C)CC)C(C)C)C(C)C)C(=O)N[C@@H](Cc1c[nH]c2ccccc12)C(=O)N[C@@H](CCCCNC(=N)N)C(=O)N[C@@H](CCCNC(=N)N)C(N)=O (H-VRLIVAVRIW[hArg]R-NH2)	Dose-dependent effect	Active	10.8	–
CC[C@H](C)[C@H](NC(=O)[C@H](CCCNC(=N)N)NC(=O)[C@@H](NC(=O)[C@H](C)NC(=O)[C@@H](NC(=O)[C@@H](NC(=O)[C@H](CC(C)C)NC(=O)[C@H](CCCNC(=N)N)NC(=O)[C@@H](N)C(C)C)[C@@H](C)CC)C(C)C)C(C)C)C(=O)N[C@@H](CCNC(=N)N)C(=O)N[C@@H](CCCNC(=N)N)C(=O)N[C@@H](CCCNC(=N)N)C(N)=O (H-VRLIVAVRI[Agb]RR-NH2)	Dose-dependent effect	Active	103.7	–
CC[C@H](C)[C@H](NC(=O)[C@H](CCCNC(=N)N)NC(=O)[C@@H](NC(=O)[C@H](C)NC(=O)[C@@H](NC(=O)[C@@H](NC(=O)[C@H](CC(C)C)NC(=O)[C@H](CCCNC(=N)N)NC(=O)[C@@H](N)C(C)C)[C@@H](C)CC)C(C)C)C(C)C)C(=O)N[C@@H](CNC(=N)N)C(=O)N[C@@H](CCCNC(=N)N)C(=O)N[C@@H](CCCNC(=N)N)C(N)=O (H-VRLIVAVRI[Agp]RR-NH2)	Dose-dependent effect	Active	102.9	–
CC[C@H](C)[C@H](NC(=O)[C@H](CCCNC(=N)N)NC(=O)[C@@H](NC(=O)[C@H](C)NC(=O)[C@@H](NC(=O)[C@@H](NC(=O)[C@H](CC(C)C)NC(=O)[C@H](CCCNC(=N)N)NC(=O)[C@@H](N)C(C)C)[C@@H](C)CC)C(C)C)C(C)C)C(=O)N[C@@H](CCN)C(=O)N[C@@H](CCCNC(=N)N)C(=O)N[C@@H](CCCNC(=N)N)C(N)=O (H-VRLIVAVRI[Dab]RR-NH2)	Dose-dependent effect	Active	90.8	–
CC[C@H](C)[C@H](NC(=O)[C@H](CCCNC(=N)N)NC(=O)[C@@H](NC(=O)[C@H](C)NC(=O)[C@@H](NC(=O)[C@@H](NC(=O)[C@H](CC(C)C)NC(=O)[C@H](CCCNC(=N)N)NC(=O)[C@@H](N)C(C)C)[C@@H](C)CC)C(C)C)C(C)C)C(=O)N[C@@H](CN)C(=O)N[C@@H](CCCNC(=N)N)C(=O)N[C@@H](CCCNC(=N)N)C(N)=O (H-VRLIVAVRI[Dap]RR-NH2)	Dose-dependent effect	Active	15	–
CC[C@H](C)[C@H](NC(=O)[C@H](CCCNC(=N)N)NC(=O)[C@@H](NC(=O)[C@H](C)NC(=O)[C@@H](NC(=O)[C@@H](NC(=O)[C@H](CC(C)C)NC(=O)[C@H](CCCNC(=N)N)NC(=O)[C@@H](N)C(C)C)[C@@H](C)CC)C(C)C)C(C)C)C(=O)N[C@@H](CCCN)C(=O)N[C@@H](CCCNC(=N)N)C(=O)N[C@@H](CCCNC(=N)N)C(N)=O (H-VRLIVAVRI[Orn]RR-NH2)	Dose-dependent effect	Active	39.3	–
CC[C@H](C)[C@H](NC(=O)[C@H](CCCNC(=N)N)NC(=O)[C@@H](NC(=O)[C@H](C)NC(=O)[C@@H](NC(=O)[C@@H](NC(=O)[C@H](CC(C)C)NC(=O)[C@H](CCCNC(=N)N)NC(=O)[C@@H](N)C(C)C)[C@@H](C)CC)C(C)C)C(C)C)C(=O)N[C@@H](CCCCNC(=N)N)C(=O)N[C@@H](CCCNC(=N)N)C(=O)N[C@@H](CCCNC(=N)N)C(N)=O (H-VRLIVAVRI[hArg]RR-NH2)	Dose-dependent effect	Active	37.2	–
CC[C@H](C)[C@H](NC(=O)[C@H](CC(C)C)NC(=O)[C@H](CCCNC(=N)N)NC(=O)[C@@H](N)C(C)C)C(=O)N[C@H](C(=O)N[C@@H](C)C(=O)N[C@H](C(=O)N[C@@H](CCCNC(=N)N)C(=O)N[C@@H](CCNC(=N)N)C(=O)N[C@@H](Cc1c[nH]c2ccccc12)C(=O)N[C@@H](CCCNC(=N)N)C(=O)N[C@@H](CCCNC(=N)N)C(N)=O)C(C)C)C(C)C (H-VRLIVAVR[Agb]WRR-NH2)	Dose-dependent effect	Active	103.6	–
